Test results published in patent US6417383B1, “Thermosensitive cyclotriphosphazene derivatives and a preparation method thereof” (Korea Institute of Science and Technology, priority 1999, dated 2002).

assay: LCST (lower critical solution temperature) measured by UV/VIS spectrophotometer; format: physicochemical; details: lower critical solution temperature in water; Perkin-Elmer Lamda18 UV/VIS spectrophotometer
Description: Thermosensitivity in the present invention refers to the reversible phenomenon wherein a material is dissolved in water at a low temperature but precipitated as a result of the lowered solubility above at a critical temperature, and re-dissolved in water by lowering the temperature. This phenomenon is contradictory to the general phenomenon that solubility increases at higher temperatures. Thermosensitivity is often observed for water-soluble polymers that are dissolved below and precipitated above the so-called lower critical solution temperatures (LCST). Below the LCST, interaction between polymer and water molecules by hydrogen bonding is greater than the intermolecular hydrophobic interaction between polymer molecules, which results in dissolution of the polymer in water. As the temperature of the aqueous solution increases, however, the hydrogen bonding of the polymer-water molecules weakens whereas the hydrophobic interaction between the polymer molecules increases. As, the temperature of the aqueous solution reaches the LCST, the hydrophobic interaction becomes greater than the hydrogen bonding interaction between the polymer and water molecules resulting in the precipitation of the polymer in aqueous solution.
Elemental analysis of carbon, hydrogen, nitrogen in the compounds of the present invention was performed in the Special Analysis Center in our Institute by using a carbon, hydrogen and nitrogen analyzer (Perkin Eimer), and phosphorous analysis was performed using a Polyscan 61E ICP. Also, hydrogen and phosphorous nuclear magnetic resonance spectra were obtained using a Varian Gemini-300, and the LCST was measured by using a Perkin-Elmer Lamda18 UV/VIS spectrophotometer.

LCST	Substance
16.5 °C	(2-(2′-Ethoxyethoxy)ethoxy)(L-aspartoyldiethylester) cyclotriphosphazene [Example 6]
47.5 °C	(2-(2′-Methoxyethoxy)ethoxy)(L-aspartoyldiethylester) cyclotriphosphazene [Example 4]
30.0 °C	(2-(2′-Methoxyethoxy)ethoxy)(L-glutamoyldiethylester) cyclotriphosphazene [Example 5]
10.5 °C	(2-(2′-Methoxyethoxy)ethoxy)(glycinebenzylester) cyclotriphosphazene [Example 2]
39.0 °C	(2-(2′-Methoxyethoxy)ethoxy)-(aminomalonatodiethylester) cyclotriphosphazene [Example 3]
42.5 °C	(Poly(methoxyethyleneglycol350))(L-aspartoyldibenzylester)cyclotriphosphazene [Example 11]
83.0 °C	(Poly(methoxyethyleneglycol350))(L-aspartoyldiethylester) cyclotriphosphazene [Example 10]
73.0 °C	(Poly(methoxyethyleneglycol350))(L-glutamoyldiethylester) cyclotriphosphazene [Example 12]
95.0 °C	(Poly(methoxyethyleneglycol350))(aminomalonatoyl diethylester)cyclotriphosphazene [Example 9]
65.5 °C	(Poly(methoxyethyleneglycol350))(glycinebenzylester) cyclotriphosphazene [Example 8]
78.5 °C	(Poly(methoxyethyleneglycol750))(L-aspartoyldibenzylester) cyclotriphosphazene [Example 14]
69.0 °C	(Poly(methoxyethyleneglycols550))L-aspartoyldibenzylester) cyclotriphosphazene [Example 13]

Substance	LCST
(2-(2′-Butoxyethoxy)ethoxy)(L-aspartoyldiethylester) cyclotriphosphazene [Example 7]	below 0 °C
(2-(2′-Methoxyethoxy)ethoxy)(glycineethylester)cyclotriphosphazene [Example 1]	above 100 °C
